Source: patent EP4800015A1, “AZABICYCLO DERIVATIVE AND PREPARATION METHOD THEREFOR, AND USE” (Zhejiang Hisun Pharmaceutical Co., Ltd., priority 2023, dated 2025)

Experiments:
SW48 cells = assay: Inhibition of SW48 cell proliferation (CellTiter-Glo); type: cell-based; details: Homo sapiens; SW48 cells (MSI-H), 120 hours
Summary of the method: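 SW48 (MSI-H) cells in L-15 with 10% FBS were seeded at 500 per well, cultured overnight at 37 °C, then exposed to compound at final concentrations of 10000 nM to 1.52 nM for 120 h. Viability was read by CellTiter-Glo luminescence, with inhibition relative to 0.1% DMSO. IC50 from nonlinear regression of log concentration versus inhibition.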

[1] = Pharmacokinetic test in mice after intragastric administration; type: in vivo; details: male, mouse, plasma, ICR mice, Oral (10 mg/kg); for AUC(0-t): read-out: Area under curve AUC0-t; for half-life: read-out: Half-life T1/2 (converted); for Cmax: read-out: Plasma concentration Cmax
Protocol: ICR mice were used as test animals, the plasma concentrations of the control compound HRO761 and the compounds of the present disclosure at different time points after intragastric administration were determined by LC/MS/MS method, and the pharmacokinetic characteristics of the compounds of the present disclosure in mice were studied.
ICR mice, male, 30.8 to 38.0 g, purchased from Vital River Laboratory Animal Technology Co., Ltd.
An appropriate amount of the test compound was weighed, and an appropriate amount of DMA (N,N-dimethylacetamide), 30% Solutol HS15 (30% polyethylene glycol-15 hydroxystearate), and Saline (saline) were added sequentially, the mixture was ultrasonicated and vortex mixed to prepare a 1 mg/mL dosing formulation. The ratio of DMA:30% Solutol HS15:Saline was 5:5:90 (v/v/v).
After overnight fasting, ICR mice in each test compound injection group (9 mice per group) were administered intragastrically (PO, compound dose was 10 mg/kg, administration volume was 10 mL/kg), and food was given 4 hours after administration.
About 0.1 mL of blood was collected via the orbital cavity before administration and at 0.25 h, 0.5 h, 1 h, 2 h, 4 h, 8 h, 10 h, and 24 h after administration, and whole blood samples were placed in anticoagulant tubes containing EDTA-K2. The samples were placed on ice after collection, and plasma was separated by centrifugation (centrifugation conditions: 1500 g, 10 minutes). The collected plasma was stored at -40 to -20 °C before analysis.
The content of the test compound in mouse plasma after intragastric administration was determined by LC-MS/MS.

RL95-2 cells = assay: Inhibition of RL95-2 cell proliferation (CellTiter-Glo); type: cell-based; details: Homo sapiens; RL95-2 cells (MSI-H), 120 hours
Summary of the method: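 RL95-2 (MSI-H) cells, 500/well in DMEM/F12 with 10% FBS, adhered overnight, then treated 120 h at 37 °C, 5% CO2 with compound at final 1.52-10000 nM. Viability by CellTiter-Glo luminescence. Inhibition relative to 0.1% DMSO control; IC50 from nonlinear regression of log concentration versus inhibition.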

recombinant human WRN = molecular target: T1, recombinant human WRN (Homo sapiens, UniProt Q14191); assay: Inhibition of WRN enzyme activity (ATPase), ADP-Glo Kinase Assay; type: biochemical; details: WRN protein 5 nM, Flap 0.1 nM, ATP 30 µM; read-out: IC50
T1 construct: purchased BPS 101264
T1 sequence (Q14191 whole entry): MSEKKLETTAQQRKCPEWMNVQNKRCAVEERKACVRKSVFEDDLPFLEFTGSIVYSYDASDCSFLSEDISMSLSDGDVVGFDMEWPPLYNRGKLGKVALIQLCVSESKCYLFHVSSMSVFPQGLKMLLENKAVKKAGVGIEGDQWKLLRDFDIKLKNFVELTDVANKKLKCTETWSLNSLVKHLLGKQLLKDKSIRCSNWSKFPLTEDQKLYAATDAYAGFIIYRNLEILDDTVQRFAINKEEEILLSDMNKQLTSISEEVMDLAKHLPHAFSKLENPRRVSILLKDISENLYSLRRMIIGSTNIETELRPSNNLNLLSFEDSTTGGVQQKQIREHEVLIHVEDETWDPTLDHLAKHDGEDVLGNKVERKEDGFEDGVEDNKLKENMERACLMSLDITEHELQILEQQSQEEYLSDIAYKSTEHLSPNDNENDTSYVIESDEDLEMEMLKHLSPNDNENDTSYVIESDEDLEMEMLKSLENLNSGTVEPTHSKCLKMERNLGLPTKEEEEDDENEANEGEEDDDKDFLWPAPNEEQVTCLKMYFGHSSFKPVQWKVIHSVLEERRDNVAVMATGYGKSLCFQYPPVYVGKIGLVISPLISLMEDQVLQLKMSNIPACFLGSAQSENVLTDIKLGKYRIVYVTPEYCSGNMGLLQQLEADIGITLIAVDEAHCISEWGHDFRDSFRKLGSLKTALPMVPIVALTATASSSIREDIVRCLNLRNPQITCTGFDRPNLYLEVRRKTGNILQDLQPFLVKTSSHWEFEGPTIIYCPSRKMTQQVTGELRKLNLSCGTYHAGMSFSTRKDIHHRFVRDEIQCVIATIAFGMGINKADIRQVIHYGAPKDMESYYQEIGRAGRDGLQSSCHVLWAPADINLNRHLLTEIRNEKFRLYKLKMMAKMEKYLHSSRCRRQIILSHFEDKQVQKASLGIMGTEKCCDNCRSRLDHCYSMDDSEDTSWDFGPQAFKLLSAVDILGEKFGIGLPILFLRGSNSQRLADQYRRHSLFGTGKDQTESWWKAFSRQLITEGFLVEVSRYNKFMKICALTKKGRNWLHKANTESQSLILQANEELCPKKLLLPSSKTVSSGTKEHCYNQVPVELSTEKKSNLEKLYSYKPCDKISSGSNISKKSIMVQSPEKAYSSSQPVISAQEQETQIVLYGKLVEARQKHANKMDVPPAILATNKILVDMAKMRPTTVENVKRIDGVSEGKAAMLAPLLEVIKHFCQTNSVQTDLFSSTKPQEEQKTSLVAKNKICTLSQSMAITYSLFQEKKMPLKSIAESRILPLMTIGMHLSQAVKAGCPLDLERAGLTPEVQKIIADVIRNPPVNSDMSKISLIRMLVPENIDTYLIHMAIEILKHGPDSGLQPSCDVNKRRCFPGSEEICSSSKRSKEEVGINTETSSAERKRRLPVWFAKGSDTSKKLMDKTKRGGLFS
Summary of the method: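 Recombinant human WRN (5 nM) was preincubated with compound (1000–0.004 nM) for 15 min at room temperature. Flap26 5'-flap DNA (0.1 nM) and 30 µM ATP were then added for 10 min in Tris pH 7.5, MgCl2, NaCl, BSA, Pluronic buffer. ADP was detected by ADP-Glo luminescence, and IC50 was obtained by nonlinear regression versus a 0.1% DMSO control.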

[2] = system: Caco-2 monolayer cell model; assay: Caco-2 bidirectional permeability and efflux ratio; type: in vitro ADME; details: Caco-2, conclusion
Protocol: (§1) The bidirectional permeability and efflux ratio of the example compounds and control compound were determined in a Caco-2 monolayer cell model.
(§2) Caco-2 cells (cultured at Shanghai Medicilon Inc.) were recovered in the experiment. After the cells were in good condition, they were digested, and the cell density was adjusted (1 × 10^5 cells/cm^2). Caco-2 cells were seeded into Transwell chambers and placed in 24-well plates for cultivation. After continuous cultivation for about 21 days, TEER values were measured one day before the experiment to ensure formation of a confluent cell monolayer for transport experiments (TEER > 200 Ω·cm^2). Test compounds were diluted from 10 mM stock solutions to 10 µM concentration using transport buffer (HBSS containing BSA) (metoprolol and atenolol were set as positive compounds). For efflux determination, 0.6 mL of compound dilution solution was added to the outer well (side B), and 0.4 mL of blank transport buffer was added to the Transwell chamber. For absorption determination, 0.4 mL of transport buffer containing compound was added to the Transwell chamber, and 0.6 mL of blank transport buffer was added to the outer side. After setup, the 24-well plates were cultivated at 37 °C and 5% CO2 with 95% relative humidity for 120 minutes, and permeability of test compounds from A to B direction or B to A direction was measured, respectively, with two duplicate wells set for each direction. Liquid in Transwell chambers and 24-well plates was collected separately, 60 µL each, and 180 µL of acetonitrile (containing internal standard) was added, vortexed for 1 min, then centrifuged at 4 °C, 10000 rpm for 10 min. The supernatant was taken, filtered through a 0.22 µm membrane, and placed in vials for testing. The content of the compounds in each Transwell chamber and 24-well plate was determined by liquid chromatography-tandem mass spectrometry (LC-MS/MS). Table 4 Permeability data of compounds of the present disclosure

[3] = Caco-2 bidirectional permeability and efflux ratio; type: in vitro ADME; details: human, Caco-2, 10 µM, 120 minutes
Protocol: as §1, §2

[4] = Metabolic stability in human liver microsomes; type: in vitro ADME; details: human liver microsomes 0.5 mg mL^-1, NADPH 1 mM, 0-60 min; read-out: Liver microsomal stability t1/2 (min) Human
Protocol: (§3) The purpose of this study was to investigate the metabolic stability of the compounds of the present disclosure in human and dog liver microsomes.
(§4) The compounds were co-incubated with human (or dog) liver microsomes, and the reaction was initiated by adding coenzyme NADPH (1 mM). At 0, 5, 15, 30, and 60 minutes, 60 µL of incubation solution was removed, and 180 µL of acetonitrile containing internal standard (clopidogrel) was added to quench the reaction, the mixture was shaken for 10 seconds, centrifuged at 10000 rpm for 10 minutes, and the supernatant was taken for analysis by LC-MS/MS. The in vitro intrinsic clearance was calculated based on the elimination half-life of the test compound in the incubation system. Midazolam was used as an internal reference compound, with two parallel incubations for each. Incubation conditions are summarized in Table 6 below: Table 6 Incubation conditions for the example compounds of the present disclosure
(§5) The ratio of the peak area of analyte to internal standard (Aanalyte/AIS) was obtained from the instrument, and the remaining percentage (%Control) was calculated from the ratio of Aanalyte/AIS in non-zero time point samples to zero time samples. Ln (%Control) was plotted against incubation time and linearly fitted. The test compound clearance constant (k, min^-1) and clearance half-life (T1/2, min) were calculated using the following equations. k = −slope [formula] T1/2 = 0.693/k. [formula]

[5] = Metabolic stability in dog liver microsomes; type: in vitro ADME; details: dog liver microsomes 0.5 mg mL^-1, NADPH 1 mM, 0-60 min; read-out: Liver microsomal stability t1/2 (min) Dog
Protocol: as §3, §4, §5

## CCc1c(N2CCN(C(=O)c3ncnc(C)c3O)CC2)c(=O)n2nc(C3=CCCCCC3)nc2n1CC(=O)Nc1ccc(C(F)(F)F)cc1Cl [Example 6, N-(2-chloro-4-(trifluoromethyl)phenyl)-2-(2-(cyclohept-1-en-1-yl)-5-ethyl-6-(4-(5-hydroxy-6-methylpyrimidine-4-carbonyl)piperazin-1-yl)-7-oxo-[1,2,4]triazolo[1,5-a]pyrimidin-4(7H)-yl)acetamide]
SW48 cells
  IC50: 1 to 100 nM
[1]
  AUC(0-t): 39700 ng·h/mL
  half-life: 1.26 h
  Cmax: 15900 ng/mL
RL95-2 cells
  IC50: 1 to 100 nM
Recombinant human WRN
  IC50: < 1 nM

## CCc1c(N2CCN(C(=O)c3ncnc(C)c3O)CC2)c(=O)n2nc(C3=CCCCCC3)nc2n1CC(=O)Nc1ccc(S(F)(F)(F)(F)F)cc1 [Example 27, 2-(2-(cyclohept-1-en-1-yl)-5-ethyl-6-(4-(5-hydroxy-6-methylpyrimidine-4-carbonyl)piperazin-1-yl)-7-oxo-[1,2,4]triazolo[1,5-a]pyrimidin-4(7H)-yl)-N-(4-(pentafluoro-λ^66-sulfaneyl)phenyl)acet amide]
SW48 cells
  IC50: 1 to 100 nM
[1]
  AUC(0-t): 66600 ng·h/mL
  half-life: 2.27 h
  Cmax: 18100 ng/mL
RL95-2 cells
  IC50: 1 to 100 nM
Recombinant human WRN
  IC50: 1 to 100 nM

## CCc1c(N2CCN(C(=O)c3ncnc(C)c3O)CC2)c(=O)n2nc(-c3ccc4ccoc4c3)nc2n1CC(=O)Nc1ccc(C(F)(F)F)cc1Cl [Example 68, 2-(2-(benzofuran-6-yl)-5-ethyl-6-(4-(5-hydroxy-6-methylpyrimidine-4-carbonyl)piperazin-1-yl)-7-oxo-[1,2,4]triazolo[1,5-a]pyrimidin-4(7H)-yl)-N-(2-chloro-4-(trifluoromethyl)phenyl)acetamide]
[2]
  efflux (in words): no significant efflux
  permeability (in words): moderate permeability
[3]; read-out: Efflux ratio Papp(B-A)/ Papp(A-B)
  efflux ratio at 120 min, 10 µM: 1.1
[3]; A to B
  Papp A→B at 120 min, 10 µM: 4.64 ×10⁻⁶ cm/s
[3]; B to A
  Papp B→A at 120 min, 10 µM: 5.09 ×10⁻⁶ cm/s
[1]
  AUC(0-t): 98900 ng·h/mL
  half-life: 2.41 h
  Cmax: 17300 ng/mL
RL95-2 cells
  IC50: 1 to 100 nM
Recombinant human WRN
  IC50: < 1 nM

## CCc1c(N2CCN(C(=O)c3ncnc(C)c3O)CC2)c(=O)n2nc(-c3ccc4c(c3)CCO4)nc2n1CC(=O)Nc1ccc(C(F)(F)F)cc1Cl [Example 76, N-(2-chloro-4-(trifluoromethyl)phenyl)-2-(2-(2,3-dihydrobenzofuran-5-yl)-5-ethyl-6-(4-(5-hydroxy-6-methylpyrimidine-4-carbonyl)piperazin-1-yl)-7-oxo-[1,2,4]triazolo[1,5-a]pyrimidin-4(7H)-yl)acetamide]
[4]
  half-life: 999 min
RL95-2 cells
  IC50: 1 to 100 nM
[5]
  half-life: 200 min
Recombinant human WRN
  IC50: 1 to 100 nM

## CCc1c(N2CCN(C(=O)c3ncnc(C)c3O)CC2)c(=O)n2nc(-c3ccc4occc4c3)nc2n1CC(=O)Nc1ccc(S(F)(F)(F)(F)F)cc1 [Example 97, 2-(2-(benzofuran-5-yl)-5-ethyl-6-(4-(5-hydroxy-6-methylpyrimidine-4-carbonyl)piperazin-1-yl)-7-oxo-[1,2,4]triazolo[1,5-a]pyrimidin-4(7H)-yl)-N-(4-(pentafluoro-λ^6-sulfaneyl)phenyl)acetamide]
SW48 cells
  IC50: 1 to 100 nM
[1]
  AUC(0-t): 28500 ng·h/mL
  half-life: 2.3 h
  Cmax: 9920 ng/mL
RL95-2 cells
  IC50: 1 to 100 nM
Recombinant human WRN
  IC50: 1 to 100 nM

## CCc1c(N2CCN(C(=O)c3ncnc(C)c3O)CC2)c(=O)n2nc(-c3ccc4c(ccn4C)c3)nc2n1CC(=O)Nc1ccc(C(F)(F)F)cc1Cl [Example 103, N-(2-chloro-4-(trifluoromethyl)phenyl)-2-(5-ethyl-6-(4-(5-hydroxy-6-methylpyrimidine-4-carbonyl)piperazin-1-yl)-2-(1-methyl-1H-indol-5-yl)-7-oxo-[1,2,4]triazolo[1,5-a]pyrimidin-4(7H)-yl)ac etamide]
SW48 cells
  IC50: 1 to 100 nM
[1]
  AUC(0-t): 24300 ng·h/mL
  half-life: 2.75 h
  Cmax: 7120 ng/mL
RL95-2 cells
  IC50: 1 to 100 nM
Recombinant human WRN
  IC50: 1 to 100 nM

## Cc1ncnc(C(=O)N2CCN(c3c(C)n(CC(=O)Nc4ccc(C(F)(F)F)cc4Cl)c4nc(-c5ccc6c(c5)CCO6)nn4c3=O)CC2)c1O [Example 106, N-(2-chloro-4-(trifluoromethyl)phenyl)-2-(2-(2,3-dihydrobenzofuran-5-yl)-6-(4-(5-hydroxy-6-methylpyrimidine-4-carbonyl)piperazin-1-yl)-5-methyl-7-oxo-[1,2,4]triazolo[1,5-a]pyrimidin-4(7H) -yl)acetamide]
SW48 cells
  IC50: 1 to 100 nM
[1]
  AUC(0-t): 330000 ng·h/mL
  half-life: 4.85 h
  Cmax: 45000 ng/mL
RL95-2 cells
  IC50: 1 to 100 nM
Recombinant human WRN
  IC50: 1 to 100 nM

## CCc1c(N2CCN(C(=O)c3ncnc(C)c3O)CC2)c(=O)n2nc(-c3ccc4ncsc4c3)nc2n1CC(=O)Nc1ccc(C(F)(F)F)cc1Cl [Example 125, 2-(2-(benzo[d]thiazol-6-yl)-5-ethyl-6-(4-(5-hydroxy-6-methylpyrimidine-4-carbonyl)piperazin-1-yl)-7-oxo-[1,2,4]triazolo[1,5-a]pyrimidin-4(7H)-yl)-N-(2-chloro-4-(trifluoromethyl)phenyl)acetamide]
SW48 cells
  IC50: 1 to 100 nM
[4]
  half-life: 705 min
RL95-2 cells
  IC50: 1 to 100 nM
[5]
  half-life: 182 min
Recombinant human WRN
  IC50: < 1 nM
